In US11760775B2, “Steroids and protein-conjugates thereof” (Regeneron Pharmaceuticals, Inc., priority 2016, dated 2023):
Like-named read-outs stand apart in the source and are kept apart here.

Columns and labels:
[1] = biological target: Glucocorticoid Receptor (GR) (Homo sapiens (Human), UniProt P04150); test: LanthaScreen TR-FRET GR Competitive Binding Assay (cell free)
[2] = test system: GR activation in 293/PRLR/GRE-Luc cells (HEK293/9xUAS-Luc2P/pBind-GR/PRLR-HA high cells); test: GR co-activator luciferase reporter cell based assay in 293/PRLR/GRE-Luc cells; design: species or system human; conditions: for EC50 / Emax: Homo sapiens; for Emax: HEK293, read-out: Activation (fold activation relative to Budesonide) in HEK293/9xUAS-Luc2P/pBind-GR/PRLR-HA high cells
Excerpt: Bioassays described herein were used to assess the efficacy of free steroids and anti-PRLR-ncADCs. In one example, the bioassay assessed the activity of steroids, after internalization of a site-specific anti-PRLR-GC steroid ADC into cells, to bind to pBIND-GR and subsequent luciferase reporter activation. […] Then such stable cell line was further transfected with a chimeric receptor consisting of a GR ligand binding domain fused to the yeast Gal4 DNA binding domain (pBind-GR, Promega Cat #E1581), and a Gal4 upstream activator sequence (9×Gal4UAS-Luc2P) that drives luciferase gene expression.
(§1) For this assay, 20,000 cells were seeded in 96-well plates in media containing DMEM supplemented with 10% FBS and pencillin/streptomycin (complete media) and grown overnight at 37° C. in 5% CO2. […] Luciferase activity was determined by addition of OneGlo™ reagent (Promega, Cat #E6130) and relative light units (RLUs) were measured on a Victor luminometer (Perkin Elmer). The EC50 values were determined from a four-parameter logistic equation over a 10 point response curve using GraphPad Prism.
as §1, with “One-Glo™” for “OneGlo™”, “10-point” for “10 point”, “Prism. […] Minimal activation in this assay is defined as less than 10% of the maximal activation measured with the free payload.” for “Prism.”

[3] = HEK293, 72 hours of incubation, read-out: HEK293/9xUAS-Luc2P/pBind-GR/PRLR-HA high cells EC50

Chain of Glucocorticoid Receptor (GR) (P04150 524-758): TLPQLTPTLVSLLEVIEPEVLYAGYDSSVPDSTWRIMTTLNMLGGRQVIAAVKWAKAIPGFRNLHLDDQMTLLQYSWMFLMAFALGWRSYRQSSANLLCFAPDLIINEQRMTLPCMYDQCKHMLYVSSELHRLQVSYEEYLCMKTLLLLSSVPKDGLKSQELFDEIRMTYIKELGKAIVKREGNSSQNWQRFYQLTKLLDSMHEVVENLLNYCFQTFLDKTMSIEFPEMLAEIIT

Row | SMILES | IC50 [1] | Fold Activation ([2]; 293/PRLR/GRE-Luc cells, 72 hours) | EC50 ([2]; HEK293, 72 h, read-out: EC50) | Emax ([2]; 72 hours of incubation) | EC50 [2, 3]
1 | C[C@]12C=CC(=O)C=C1CC[C@@H]1[C@@H]2[C@@H](O)C[C@@]2(C)[C@H]1C[C@H]1OC(Cc3ccc(N)cc3)O[C@]12C(=O)CO (stereo partly drawn) [7-2 R/S, (1S,2S,4R,8S,9S,11S,12S,13R)-6[(4-Aminophenyl)methyl]-11-hydroxy-8-(2-hydroxyacetyl)-9,13-dimethyl-5,7-dioxapentacyclo[10.8.0.0^2,90.0^4,80.0^13,18]icosa-14,17-dien-16-one] | < 10 nM | Full | 10 to 100 nM | < 20% | < 10 nM
2 | CC(C)C(=O)OCC(=O)[C@@]12OC(Cc3ccc(N)cc3)O[C@@H]1C[C@H]1[C@@H]3CCC4=CC(=O)C=C[C@]4(C)[C@H]3[C@@H](O)C[C@@]12C (stereo partly drawn) [8-2 R/S, 2[(1S,2S,4R,8S,9S,11S,12S,13R)-6[(4-Aminophenyl)methyl]-11-hydroxy-9,13-dimethyl-16-oxo-5,7-dioxapentacyclo[10.8.0.0^2,90.0^4,80.0^13,18]icosa-14,17-dien-8-yl]-2-oxoethyl 2-methylpropanoate] | < 10 nM |  |  | < 20% | > 100 nM
3 | CC(C)C(=O)OCC(=O)[C@@]12OC(CCN)O[C@@H]1C[C@H]1[C@@H]3CCC4=CC(=O)C=C[C@]4(C)[C@H]3[C@@H](O)C[C@@]12C (stereo partly drawn) [8-3 R/S, 2[(1S,2S,4R,8S,9S,11S,12S,13R)-6-(2-Aminoethyl)-11-hydroxy-9,13-dimethyl-16-oxo-5,7-dioxapentacyclo[10.8.0.0^2,90.0^4,8. 0^13,18]icosa-14,17-dien-8-yl]-2-oxoethyl 2-methylpropanoate] | < 10 nM |  |  | < 20% | > 100 nM
4 | CCCC1O[C@@H]2C[C@H]3[C@@H]4CCC5=CC(=O)C=C[C@]5(C)[C@H]4[C@@H](O)C[C@]3(C)[C@]2(C(=O)CN)O1 (stereo partly drawn) [11-1 R/S, (1S,2S,4R,8S,9S,11S,12S,13R)-8-(2-Aminoacetyl)-11-hydroxy-9,13-dimethyl-6-propyl-5,7-dioxapentacyclo[10.8.0.0^2,9. 0^4,80.0^13,18]icosa-14,17-dien-16-one] | 10 to 100 nM |  |  | > 75% | < 10 nM
5 | CCCC1O[C@@H]2C[C@H]3[C@@H]4CCC5=CC(=O)C=C[C@]5(C)[C@H]4[C@@H](O)C[C@]3(C)[C@]2(C(=O)CNC)O1 (stereo partly drawn) [11-2 R/S, (1S,2S,4R,8S,9S,11S,12S,13R)-11-hydroxy-9,13-dimethyl-8-[2-(methylamino)acetyl]-6-propyl-5,7-dioxapentacyclo[10.8.0.0^2,90.0^4,80.0^13,18]icosa-14,17-dien-16-one] | 10 to 100 nM |  |  | > 75% | > 100 nM
6 | CCCC1O[C@@H]2C[C@H]3[C@@H]4CCC5=CC(=O)C=C[C@]5(C)[C@H]4[C@@H](O)C[C@]3(C)[C@]2(C(=O)CN(C)C)O1 (stereo partly drawn) [11-3 R/S, (1S,2S,4R,8S,9S,11S,12S,13R)-8-[2-(Dimethylamino)acetyl]-11-hydroxy-9,13-dimethyl-6-propyl-5,7-dioxapentacyclo[10.8.0.0^2,90.0^4,80.0^13,18]icosa-14,17-dien-16-one] | < 10 nM |  |  | 20 to 75% | 10 to 100 nM
7 | CCC[C@@H]1O[C@@H]2C[C@H]3[C@@H]4CCC5=CC(=O)C=C[C@]5(C)[C@H]4[C@@H](O)C[C@]3(C)[C@]2(C(=O)COc2ccc(N)cc2)O1 [11-5 R, (1S,2S,4R,8S,9S,11S,12S,13R)-8-[2-(4-Aminophenoxy)acetyl]-11-hydroxy-9,13-dimethyl-6-propyl-5,7-dioxapentacyclo[10.8.0.0^2,90.0^4,80.0^13,18]icosa-14,17-dien-16-one] | 10 to 100 nM |  |  | > 75% | < 10 nM
